Experimental data taken from patent US8846733B2, “Oxazolyl-methylether derivatives as ALX receptor agonists” (Actelion Pharmaceuticals Ltd., priority 2010, dated 2014).
Values belong to the compound of their own block, whether it stands above or below them.

What was measured:
[1] = biological target: T1, recombinant human ALX receptor (Homo sapiens, UniProt P25090); assay: Intracellular calcium measurements (FLIPR), ALX receptor agonistic activity; type: cell-based; conditions: HEK293-hALXR-Gα16 cells; Table 1, exemplified compounds
T1 construct: expressed in transfected cells; host or cells: HEK293 (HEK293-hALXR-Gα16)
T1 sequence (P25090 1-351): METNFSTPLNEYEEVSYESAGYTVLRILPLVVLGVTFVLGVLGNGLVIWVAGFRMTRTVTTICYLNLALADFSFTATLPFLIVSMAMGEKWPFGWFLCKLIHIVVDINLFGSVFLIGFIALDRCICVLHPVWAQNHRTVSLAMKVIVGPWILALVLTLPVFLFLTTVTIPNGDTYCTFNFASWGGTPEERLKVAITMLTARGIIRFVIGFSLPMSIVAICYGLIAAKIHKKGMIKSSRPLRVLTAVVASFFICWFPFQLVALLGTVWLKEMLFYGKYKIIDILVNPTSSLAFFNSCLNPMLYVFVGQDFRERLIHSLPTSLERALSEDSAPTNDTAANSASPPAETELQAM
Procedure: The ALX receptor agonistic activity of the compounds of formula (I) is determined in accordance with the following experimental method.
Intracellular Calcium Measurements:
Cells expressing recombinant human ALX receptor and the G-protein Gα16 (HEK293-hALXR-Gα16) were grown to 80% confluency in Growing Medium (GM). Cells were detached from culture dishes with a cell dissociation buffer (Invitrogen, 13151-014), and collected by centrifugation at 1,000 rpm at rt for 5 min in Assay Buffer (AB) (equal parts of Hank's BSS (Gibco, 14065-049) and DMEM without Phenol Red (Gibco, 11880-028)). After 60 min incubation at 37° C. under 5% CO2 in AB supplemented with 1 μM Fluo-4 (AM) (Invitrogen, F14202) and 20 mM HEPES (Gibco, 15630-056), the cells were washed and resuspended in AB. They were then seeded onto 384-well FLIPR assay plates (Greiner, 781091) at 50,000 cells in 70 μl per well and sedimented by centrifugation at 1,000 rpm for 1 min. Stock solutions of test compounds were made up at a concentration of 10 mM in DMSO, and serially diluted in AB to concentrations required for activation dose response curves. WKYMVm (Phoenix Peptides) was used as a reference agonist. A FLIPR Tetra instrument (Molecular Devices) was operated according to the manufacturer's standard instructions, adding 4 μl of test compound dissolved at 10 mM in DMSO and diluted prior to the experiment in assay buffer to obtain the desired final concentration. Changes in fluorescence were monitored before and after the addition of test compounds at lex=488 nm and lem=540 nm. Emission peak values above base level after compounds addition were exported after base line subtraction. Values were normalized to high-level control (WKYMVm compound, 10 nM final concentration) after subtraction of the base line value (AB addition).

[2] = Plasma stability assay, human plasma; type: in vitro ADME; conditions: for remaining concentration at Tlast / half-life at 1 μM: human plasma; for half-life at 1 μM: pH 7.4, 37° C.
Procedure: (§1) Rat or human plasma adjusted at pH 7.4 with lactic acid or ammonium hydroxide, were equilibrated at 37° C. under orbital shaking in an incubator containing 5% CO2. The reaction was initiated by the addition of 1 μM of compounds (1 μl of 1 mM stock solution in DMSO in 999 μl of plasma). At 0.01 h, 0.25 h, 0.5 h, 1 h, 2 h, 4 h, 6 h and 24 h, aliquots (30 μl) were transferred in a 96 well plate containing 90 μl MeOH placed on ice to stop the reaction. After vortexing for 20 min at 1400 rpm on an Eppendorf thermomixer, the plates were centrifuged at 3220 g for 20 min at 4° C. and the supernatants were analyzed with LC-MSMS. Calibration samples in plasma containing 0.1% of dichlorvos were prepared and analysed in parallel to the incubation samples to allow the quantification. Half lives in hours were then calculated. In addition the remaining concentration of the respective compound after time Tlast relative to the concentration at the beginning has been determined (table 3).

[3] = Plasma stability assay, rat plasma; type: in vitro ADME; conditions: for half-life at 1 μM: pH 7.4, 37° C.
Procedure: as §1

[4] = Plasma stability assay with tritiated compounds, rat plasma; type: in vitro ADME
Procedure: (§2) Rat or human plasma adjusted at pH 7.4 with lactic acid were equilibrated at 37° C. under orbital shaking. The reaction was initiated by the addition of 10 μM of tritiated compound (7.5 μl of 1 mM stock solution in DMSO in 742.5 μl of plasma). At the beginning and after 4 h, 6 h and 24 h, aliquots (100 μl) were transferred in a tube containing 400 μl MeOH placed on ice to stop the reaction. After vortexing for 20 min at 1400 rpm on an Eppendorf thermomixer, the plates were centrifuged at 3220 g for 20 min at 4° C. and an aliquot of supernatants was analyzed with liquid chromatography coupled to a H3-radiodetector. The remaining pellet was further extracted with AcCN in three additional cycles of resuspension, mixing 20 min at 2000 rpm on an eppendorf thermomixer and centrifugation (3220 g for 20 min at 4° C.). The total radioactivity was measured in the collected supernatants. The final pellet was then solubilized in NaOH 1N and the total radioactivity was measured (table 4).

[5] = Plasma stability assay with tritiated compounds, human plasma; type: in vitro ADME
Procedure: as §2

EC50 [1]: 1.7 nM | remaining concentration at Tlast ([2]; Tlast 24 h): 101% | half-life at 1 μM [2]: > 24 h | stability in plasma, in words ([2]; rat and human plasma, compared with reference compound 11 / compounds of WO 2009/077990): remarkably more stable | remaining concentration at Tlast ([3]; Tlast 24 h): 88% | half-life at 1 μM [3]: > 24 h
Compound: COCc1coc(Cn2ncc(NC(=O)c3nc(C)oc3-c3cccc(C)c3)n2)n1 [Example 2, N-(2-((4-(Methoxymethyl)oxazol-2-yl)methyl)-2H-1,2,3-triazol-4-yl)-2-methyl-5-(m-tolyl)oxazole-4-carboxamide]

remaining concentration at Tlast ([2]; Tlast 6 h): 18% | half-life at 1 μM [2]: 2.4 h | remaining concentration at Tlast ([3]; Tlast 6 h): 42% | half-life at 1 μM [3]: 4.7 h | total radioactivity ([4]; rat plasma pellet, nominal incubation time 0.01 h): 419 dpm | total radioactivity ([4]; rat plasma pellet, nominal incubation time 4.0 h): 124853 dpm | total radioactivity ([4]; rat plasma pellet, nominal incubation time 6.4 h): 153683 dpm | total radioactivity ([4]; rat plasma pellet, nominal incubation time 24.4 h): 180032 dpm | total radioactivity ([4]; rat plasma supernatant, nominal incubation time 0.01 h, 10 μM tritiated compound): 173116 dpm | total radioactivity ([4]; rat plasma supernatant, nominal incubation time 4.0 h): 94798 dpm | total radioactivity ([4]; rat plasma supernatant, nominal incubation time 6.4 h): 45228 dpm | total radioactivity ([4]; rat plasma supernatant, nominal incubation time 24.4 h): 4816 dpm | total radioactivity ([5]; human plasma pellet, nominal incubation time 0.01 h): 918 dpm | total radioactivity ([5]; human plasma pellet, nominal incubation time 4.0 h): 170136 dpm | total radioactivity ([5]; human plasma pellet, nominal incubation time 6.4 h): 185420 dpm | total radioactivity ([5]; human plasma pellet, nominal incubation time 24.4 h): 227567 dpm | total radioactivity ([5]; human plasma supernatant, nominal incubation time 0.01 h, 10 μM tritiated compound): 158854 dpm | total radioactivity ([5]; human plasma supernatant, nominal incubation time 4.0 h): 38918 dpm | total radioactivity ([5]; human plasma supernatant, nominal incubation time 6.4 h): 10532 dpm | total radioactivity ([5]; human plasma supernatant, nominal incubation time 24.4 h): 3134 dpm
Compound: CC(=O)c1coc(Cn2ncc(NC(=O)c3nc(C)oc3-c3cccc(C)c3)n2)n1 [reference compound 11, N-(2-((4-acetyloxazol-2-yl)methyl)-2H-1,2,3-triazol-4-yl)-2-methyl-5-(m-tolyl)oxazole-4-carboxamide]
association of drug related material with plasma proteins, in words ([5]; rat and human plasma, tritiated compound, radioactivity moving from supernatant to pellet): strong association of drug related material with plasma proteins
